This data set relates to PBM cells. As to the kind of experiment: Cytotoxicity in uninfected PHA-stimulated human PBM cells. To be noted: read-out: Cytotoxicity (IC50) PBM cells, 6 days, cell growth.

As a reminder, the IC50 is the midpoint of a concentration-inhibition curve.

SMILES strings stand for the structures.

Regarding `Cc1cn([C@H]2C[C@H](N=[N+]=[N-])[C@@H](CO)O2)c(=O)[nH]c1=O` [AZT, 3′-azido-3′-deoxythymidine], the 50% inhibitory concentration (IC50) was more than 100 µM.
